Assays:
[1] = molecular target: Mitogen-activated protein kinase 3 (Homo sapiens, UniProt P27361); assay: Inhibition of ERK1 (unknown origin) using GFP-ATF2 as substrate after 1 hr by TR-FRET assay
[2] = molecular target: Mitogen-activated protein kinase 14 (Homo sapiens, UniProt Q16539); assay: Inhibition of p38alpha MAP kinase (unknown origin) using GFP-ATF2 as substrate after 1 hr by TR-FRET assay
[3] = molecular target: Mitogen-activated protein kinase 1 (Homo sapiens, UniProt P28482); assay: Inhibition of ERK2 (unknown origin) using GFP-ATF2 as substrate after 1 hr by TR-FRET assay
Chain of Mitogen-activated protein kinase 1 (P28482 whole entry): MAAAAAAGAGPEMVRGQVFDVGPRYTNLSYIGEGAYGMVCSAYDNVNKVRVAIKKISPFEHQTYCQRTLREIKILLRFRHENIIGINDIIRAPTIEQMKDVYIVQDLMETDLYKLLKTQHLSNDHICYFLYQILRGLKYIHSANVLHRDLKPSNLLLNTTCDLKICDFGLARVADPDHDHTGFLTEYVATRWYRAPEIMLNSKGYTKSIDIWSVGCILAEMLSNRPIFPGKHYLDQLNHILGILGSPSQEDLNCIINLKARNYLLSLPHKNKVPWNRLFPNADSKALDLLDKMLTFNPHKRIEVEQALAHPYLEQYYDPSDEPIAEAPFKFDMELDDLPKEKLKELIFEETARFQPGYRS

[4] = tested on: MCF7; assay: Antiproliferative activity against human MCF7 cells assessed as inhibition of cell vaibility after 72 hrs by MTT assay; assay type: functional, cell-based; settings: MCF7, 72 h
[5] = Antiproliferative activity against human COLO205 cells assessed as inhibition of cell vaibility after 72 hrs by MTT assay; assay type: functional, cell-based; settings: COLO 205, 72 h
[6] = tested on: MDA-MB-435; assay: Antiproliferative activity against human MDA-MB-435 cells assessed as inhibition of cell vaibility after 72 hrs by MTT assay; assay type: functional, cell-based; settings: MDA-MB-435, 72 h
[7] = tested on: T47D; assay: Antiproliferative activity against human T47D cells assessed as inhibition of cell vaibility after 72 hrs by MTT assay; assay type: functional, cell-based
[8] = tested on: K562; assay: Antiproliferative activity against human K562 cells assessed as inhibition of cell vaibility after 72 hrs by MTT assay; assay type: functional, cell-based; settings: K562, 72 h
[9] = tested on: HT-29; assay: Antiproliferative activity against human HT-29 cells assessed as inhibition of cell vaibility after 72 hrs by MTT assay; assay type: functional, cell-based; settings: HT-29, 72 h
[10] = tested on: A549; assay: Antiproliferative activity against human A549 cells assessed as inhibition of cell vaibility after 72 hrs by MTT assay; assay type: functional, cell-based; settings: A549, 72 h
[11] = Antiproliferative activity against human LOXIMVI cells assessed as inhibition of cell vaibility after 72 hrs by MTT assay; assay type: functional, cell-based; settings: LOX IMVI
[12] = tested on: PC-3; assay: Antiproliferative activity against human PC3 cells assessed as inhibition of cell vaibility after 72 hrs by MTT assay; assay type: functional, cell-based; settings: PC-3, 72 h
[13] = tested on: T47D; assay: Selectivity index, ratio of IC50 for African green monkey Vero cells to IC50 for human T47D cells; assay type: functional
[14] = tested on: MCF7; assay: Selectivity index, ratio of IC50 for African green monkey Vero cells to IC50 for human MCF7 cells; assay type: functional
[15] = tested on: HT-29; assay: Selectivity index, ratio of IC50 for African green monkey Vero cells to IC50 for human HT-29 cells; assay type: functional
[16] = tested on: Vero; assay: Selectivity index, ratio of IC50 for African green monkey Vero cells to IC50 for human COLO205 cells; assay type: functional
[17] = tested on: Vero; assay: Selectivity index, ratio of IC50 for African green monkey Vero cells to IC50 for human MDA-MB-435 cells; assay type: functional
[18] = tested on: Vero; assay: Selectivity index, ratio of IC50 for African green monkey Vero cells to IC50 for human LOXIMVI cells; assay type: functional
[19] = tested on: A549; assay: Selectivity index, ratio of IC50 for African green monkey Vero cells to IC50 for human A549 cells; assay type: functional
[20] = tested on: Vero; assay: Cytotoxicity against African green monkey Vero cells assessed as inhibition of cell viability after 72 hrs by MTT assay; assay type: cell-based; settings: Chlorocebus sabaeus
[21] = tested on: Vero; assay: Selectivity index, ratio of IC50 for African green monkey Vero cells to IC50 for human PC3 cells; assay type: functional

Chain of Mitogen-activated protein kinase 3 (P27361 whole entry): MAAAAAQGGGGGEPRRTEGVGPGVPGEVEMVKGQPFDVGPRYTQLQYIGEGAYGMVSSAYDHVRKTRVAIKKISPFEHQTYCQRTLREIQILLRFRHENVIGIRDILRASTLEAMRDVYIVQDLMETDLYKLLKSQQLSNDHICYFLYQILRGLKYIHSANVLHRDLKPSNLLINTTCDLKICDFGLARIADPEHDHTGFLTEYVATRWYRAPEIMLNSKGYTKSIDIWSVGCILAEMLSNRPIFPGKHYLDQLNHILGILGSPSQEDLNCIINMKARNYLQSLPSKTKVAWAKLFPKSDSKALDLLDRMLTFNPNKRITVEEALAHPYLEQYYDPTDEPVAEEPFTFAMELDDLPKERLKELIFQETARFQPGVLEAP
Chain of Mitogen-activated protein kinase 14 (Q16539 whole entry): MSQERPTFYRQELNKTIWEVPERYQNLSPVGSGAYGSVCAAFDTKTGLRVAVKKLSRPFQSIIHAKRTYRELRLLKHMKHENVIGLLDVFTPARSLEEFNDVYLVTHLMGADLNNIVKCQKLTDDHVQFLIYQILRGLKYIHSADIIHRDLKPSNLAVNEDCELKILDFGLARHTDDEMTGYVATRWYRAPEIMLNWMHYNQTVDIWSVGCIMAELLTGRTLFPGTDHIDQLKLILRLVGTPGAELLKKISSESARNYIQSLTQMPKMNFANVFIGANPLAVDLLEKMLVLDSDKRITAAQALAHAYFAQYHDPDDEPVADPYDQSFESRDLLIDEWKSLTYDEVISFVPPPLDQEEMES

IC50 [1] [nM]	IC50 [2] [nM]	IC50 [3] [nM]	SMILES	also measured
35	4.5	7	COc1ccc(N2C(=O)/C(=C/c3ccc(OCC(=O)Nc4cccc(Cl)c4)cc3)N=C2c2ccccc2)cc1	
25	4.5	3.2	COc1cccc(N2C(=O)/C(=C/c3ccc(OCC(=O)Nc4ccc(C)cc4)cc3)N=C2c2ccccc2)c1	Ratio IC50 [13]: 25.88; Ratio IC50 [14]: 46.86; IC50 [4]: 370 nM; IC50 [5]: 9400 nM; IC50 [6]: 230 nM; Ratio IC50 [15]: 2.98; Ratio IC50 [16]: 1.85; IC50 [7]: 670 nM; Ratio IC50 [17]: 75.39; Ratio IC50 [18]: 22.81; IC50 [8]: > 100000 nM; IC50 [9]: 5800 nM; IC50 [10]: 6500 nM; Ratio IC50 [19]: 2.66; IC50 [11]: 760 nM; IC50 [20]: 17300 nM; Ratio IC50 [21]: 20.16; IC50 [12]: 860 nM
89	3.7	3.4	COc1cccc(N2C(=O)/C(=C/c3ccc(OCC(=O)Nc4cccc(Cl)c4)cc3)N=C2c2ccccc2)c1	
47	44	4.5	COc1ccc(N2C(=O)/C(=C/c3ccc(OCC(=O)Nc4ccc(Cl)cc4)cc3)N=C2c2ccccc2)cc1	
76	4.3	4.3	COc1ccc(NC(=O)COc2ccc(/C=C3\N=C(c4ccccc4)N(c4cccc(OC)c4)C3=O)cc2)cc1	
95	4.6	4.6	COc1cccc(N2C(=O)/C(=C/c3ccc(OCC(=O)Nc4ccc(Cl)cc4)cc3)N=C2c2ccccc2)c1	

Second part, the compound before the results:

SMILES	IC50 [1] [nM]	IC50 [2] [nM]	IC50 [3] [nM]	also measured
COc1ccc(N2C(=O)/C(=C/c3ccc(OCC(=O)Nc4ccccc4C)cc3)N=C2c2ccccc2)cc1	32	56	23	
COc1ccc(N2C(=O)/C(=C/c3ccc(OCC(=O)Nc4ccccc4)cc3)N=C2c2ccccc2)cc1	23	354	23	
COc1ccc(NC(=O)COc2ccc(/C=C3\N=C(c4ccccc4)N(c4ccc(OC)cc4)C3=O)cc2)cc1	23	345	2.3	
COc1cccc(NC(=O)COc2ccc(/C=C3\N=C(c4ccccc4)N(c4cccc(OC)c4)C3=O)cc2)c1	57	6.5	5.4	
CNC(=O)c1cc(Oc2ccc(NC(=O)Nc3ccc(Cl)c(C(F)(F)F)c3)cc2)ccn1 [SORAFENIB]				IC50 [4]: 780 nM; IC50 [5]: 870 nM; IC50 [6]: 1670 nM; IC50 [7]: 610 nM; IC50 [8]: 1220 nM; IC50 [9]: 390 nM; IC50 [10]: 3190 nM; IC50 [11]: 4250 nM; IC50 [12]: 4130 nM
COc1ccc(N2C(=O)/C(=C/c3ccc(OCC(=O)Nc4ccccc4OC)cc3)N=C2c2ccccc2)cc1	43	34	89	
COc1cccc(N2C(=O)/C(=C/c3ccc(OCC(=O)Nc4ccccc4)cc3)N=C2c2ccccc2)c1	65	35	54	
COc1cccc(N2C(=O)/C(=C/c3ccc(OCC(=O)Nc4ccccc4C)cc3)N=C2c2ccccc2)c1	43	66	44	
COc1ccc(N2C(=O)/C(=C/c3ccc(OCC(=O)Nc4ccccc4Cl)cc3)N=C2c2ccccc2)cc1	24	4.7	3.5	Ratio IC50 [13]: 26.4; Ratio IC50 [14]: 24.9; IC50 [4]: 530 nM; IC50 [5]: 4500 nM; IC50 [6]: 50 nM; Ratio IC50 [15]: 2.93; Ratio IC50 [16]: 2.93; IC50 [7]: 500 nM; Ratio IC50 [17]: 264; Ratio IC50 [18]: 101.54; IC50 [8]: > 100000 nM; IC50 [9]: 4500 nM; IC50 [10]: 4900 nM; Ratio IC50 [19]: 2.69; IC50 [11]: 130 nM; IC50 [20]: 13200 nM; Ratio IC50 [21]: 13.33; IC50 [12]: 990 nM
COc1ccc(N2C(=O)/C(=C/c3ccc(OCC(=O)Nc4cccc(OC)c4)cc3)N=C2c2ccccc2)cc1	21	23	21	
COc1ccc(N2C(=O)/C(=C/c3ccc(OCC(=O)Nc4ccc(C)cc4)cc3)N=C2c2ccccc2)cc1	23	345	43	
COc1cccc(N2C(=O)/C(=C/c3ccc(OCC(=O)Nc4cccc(C)c4)cc3)N=C2c2ccccc2)c1	20	87	43	
COc1cccc(N2C(=O)/C(=C/c3ccc(OCC(=O)Nc4ccccc4OC)cc3)N=C2c2ccccc2)c1	46	54	4.7	
COc1ccc(N2C(=O)/C(=C/c3ccc(OCC(=O)Nc4cccc(C)c4)cc3)N=C2c2ccccc2)cc1	89	77	78	
COc1cccc(N2C(=O)/C(=C/c3ccc(OCC(=O)Nc4ccccc4Cl)cc3)N=C2c2ccccc2)c1	87	5.6	5.3	

Source: ChEMBL document CHEMBL3576835, “Design and synthesis of potent 1,2,4-trisubstituted imidazolinone derivatives with dual p38αMAPK and ERK1/2 inhibitory activity” (Eur J Med Chem, 2015)
